Assay results reported in patent US20260176262A1, “KRAS INHIBITORS, PREPARATION METHOD THEREFOR, AND PHARMACEUTICAL USE THEREOF” (ABBISKO THERAPEUTICS CO., LTD., priority 2021, published 2026).
Like-named read-outs stand apart in the source and are kept apart here.

Experiments:
[1] = tested on: AGS cell; test: Anti-proliferative 2D CTG assay, AGS cells; assay type: cell-based; conditions: Homo sapiens, 72 h
Description: When the cell confluence was about 80%, the cells were isolated with 0.25% trypsin. Isolated cells were resuspended in 5 mL fresh cell culture medium and centrifuged for cell collection. Meanwhile, the number of cells was also calculated. The cells were then suspended in culture medium of medium concentration. The cells were placed into a 96-well plate with 1000 cells/well for AGS and 1000 cells/well for GP2D. The 96-well plate was placed in an incubator at 37° C. and incubated overnight.
1.2 Day 1 Compound Treatment From the 10 mM stock solution, with a ratio of 1:5, 10-point serial dilutions were performed. The 10× medium containing the compound was transferred into corresponding wells of the 96 wells. The final maximum compound concentration was […] and the final DMSO concentration was 0.1%. The 96-well plate was placed in a 37° C. incubator, the AGS cells were incubated for 3 days, and the GP2D cells were incubated for 4 days.
50 μL/well of detection reagent (CTG) was added to the AGS cells, and the signal was read in an Envision machine.
The percent inhibition (%) at each compound concentration was calculated from the signal in the HPE and ZPE control wells and the fluorescence signal in the individual compound wells included in each assay plate. […] The compound concentration required for inhibitory concentration at 50% (IC50) was determined using a four-parameter logarithmic dose-response equation by testing the concentration of the compound and the inhibition percentage value. The endpoint value (IC50) of the reference compound was assessed in each experiment as a quality control measure. If the endpoint value is within three times the expected value, the experiment may be considered acceptable.

[2] = molecular target: KRAS^G12D/cRAF (Homo sapiens, UniProt P01116, G12D); test: KRAS G12D/cRAF binding test (Alphalisa); conditions: His-tagged KRAS G12D + GMPPNP, GST-tagged cRAF
Description: The compound was dissolved in 100% DMSO at a starting concentration of 5 mM and diluted in DMSO with a 3-fold serial dilution method for a total of 8 concentration points. 1 μL of the compound or DMSO at each concentration point was added into 99 μL of the experimental buffer to obtain 10× stock solution.
• 1) 4 μL of the working mixture solution of His-tagged KRAS^G12D and GMPPNP was added to the 384-well plate. • 2) The 10× compound stock solution or 1% DMSO was added to the 384-well plate. • 3) The plate was centrifuged at 1000 rpm for 1 minute. • 4) 4 μL of GST-tagged cRAF solution was added to the 384-well plate. • 5) The plate was centrifuged at 1000 rpm for 1 minute. • 6) The plate was incubated at room temperature for 15 minutes. • 7) 10 μL of detection working solution was added to the 384-well plate. • 8) The plate was centrifuged at 1000 rpm for 1 minute. • 9) The plate was incubated at room temperature for 60 minutes. • 10) The 384-well plate was placed into Envision and assay data was obtained.
The ratio for each compound concentration was calculated from the signal of the DMSO control group contained in each assay plate and the Alphalisa signal in each compound well. The compound concentration required for inhibitory concentration at 50% (IC50) was determined using a four-parameter logarithmic dose-response equation by testing the concentration of the compound and the value of the ratio. The endpoint value (IC50) of the reference compound was assessed in each experiment as a quality control measure. If the endpoint value is within three times the expected value, the experiment may be considered acceptable.

[3] = AGS cells, incubated 3 days, CTG, numeric values, read-out: AGS cell IC50
[4] = AGS cells, incubated 3 days, CTG, class symbols, read-out: AGS cell IC50

Chain of KRAS^G12D/cRAF (P01116 1-188 isoform P01116-2 G12D): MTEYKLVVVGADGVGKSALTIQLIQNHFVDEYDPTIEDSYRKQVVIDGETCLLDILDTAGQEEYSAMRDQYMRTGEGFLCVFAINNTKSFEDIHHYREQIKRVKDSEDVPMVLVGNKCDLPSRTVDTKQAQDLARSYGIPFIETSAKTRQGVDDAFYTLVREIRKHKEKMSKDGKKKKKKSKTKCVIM

Row | Compound | IC50 [1, 3] | IC50 ([2]; numeric values) | IC50 [1, 4] | IC50 ([2]; class symbols) | IC50 ([1]; AGS, read-out: AGS cell IC50 (nM))
1 | [2H]C([2H])([2H])C12CCC(CN(c3nc(OC[C@@]45CCCN4C[C@H](F)C5)nc4c(F)c(-c5cc(O)cc6ccc(F)c(C#C)c56)ncc34)C1)N2 (stereo partly drawn) [Example 7, 5-ethynyl-6-fluoro-4-(8-fluoro-2-(((2R,7aS)-2-fluorotetrahydro-1H-pyrrolizin-7a(5H)-yl)methoxy)-4-(1-(methyl-d3)-3,8-diazabicyclo[3.2.1]octan-3-yl)pyrido [4,3-d]pyrimidin-7-yl) naphthalen-2-ol] | 28 nM | 4.3 nM |  |  | 
2 | C#Cc1c(F)ccc2cc(O)cc(-c3ncc4c(N5C[C@H]6CC[C@@](/C=C\F)(C5)N6)nc(OC[C@@]56CCCN5C[C@H](F)C6)nc4c3F)c12 [Example 59, 5-ethynyl-6-fluoro-4-(8-fluoro-2-(((2R,7aS)-2-fluorotetrahydro-1H-pyrrolizin-7a(5H)-yl)methoxy)-4-((1R,5R)-1-((Z)-2-fluorovinyl)-3,8-diazabicyclo[3.2.1]octan-3-yl)pyrido[4,3-d]pyrimidin-7-yl)naphthalen-2-ol] | 13 nM | 15 nM |  |  | 
3 | [2H]C([2H])([2H])OCC12CCC(CN(c3nc(OC[C@@]45CCCN4C[C@H](F)C5)nc4c(F)c(-c5cc(O)cc6ccc(F)c(C#C)c56)nc(C)c34)C1)N2 (stereo partly drawn) [Example 39, 5-ethynyl-6-fluoro-4-(8-fluoro-2-(((2R,7aS)-2-fluorotetrahydro-1H-pyrrolizin-7a(5H)-yl)methoxy)-4-(1-((methoxy-d3)methyl)-3,8-diazabicyclo[3.2.1]octan-3-yl)-5-methylpyrido[4,3-d]pyrimidin-7-yl)naphthalen-2-ol] |  |  | < 50 nM | 50 to 500 nM | 
4 | C#Cc1c(F)ccc2cc(O)cc(-c3ncc4c(N5CC6CCC(CN(C)C(C)=O)(C5)N6)nc(OC[C@@]56CCCN5C[C@H](F)C6)nc4c3F)c12 (stereo partly drawn) [Example 25, N-((3-(7-(8-ethynyl-7-fluoro-3-hydroxynaphthalen-1-yl)-8-fluoro-2-(((2R,7aS)-2-fluorotetrahydro-1H-pyrrolizin-7a(5H)-yl)methoxy)pyrido[4,3-d]pyrimidin-4-yl)-3,8-diazabicyclo[3.2.1]octan-1-yl)methyl)-N-methylacetamide] |  |  | > 500 nM | 50 to 500 nM | 
5 | [2H]C([2H])([2H])OCC12CCC(C)(CN(c3nc(OC[C@@]45CCCN4C[C@H](F)C5)nc4c(F)c(-c5cc(O)cc6ccc(F)c(C#C)c56)ncc34)C1)N2 (stereo partly drawn) [Example 18, 5-ethynyl-6-fluoro-4-(8-fluoro-2-(((2R,7aS)-2-fluorotetrahydro-1H-pyrrolizin-7a(5H)-yl)methoxy)-4-(1-((methoxy-d3)methyl)-5-methyl-3,8-diazabicyclo [3.2.1]octan-3-yl)pyrido[4,3-d]pyrimidin-7-yl)naphthalen-2-ol] |  |  | 50 to 500 nM | 50 to 500 nM | 
6 | C#Cc1c(F)ccc2cc(O)cc(-c3ncc4c(N5CC6CCC(CC(F)F)(C5)N6)nc(OC[C@@]56CCCN5C[C@H](F)C6)nc4c3F)c12 (stereo partly drawn) [Example 21, 4-(4-(1-(2,2-difluoroethyl)-3,8-diazabicyclo[3.2.1]octan-3-yl)-8-fluoro-2-(((2R,7aS)-2-fluorotetrahydro-1H-pyrrolizin-7a(5H)-yl)methoxy)pyrido[4,3-d]pyrimidin-7-yl)-5-ethynyl-6-fluoronaphthalen-2-ol] |  |  | < 50 nM | 50 to 500 nM | 
7 | C#Cc1c(F)ccc2cc(O)cc(-c3ncc4c(N5C[C@H]6CC[C@@](/C=C/F)(C5)N6)nc(OC[C@@]56CCCN5C[C@H](F)C6)nc4c3F)c12 [Example 61, 5-ethynyl-6-fluoro-4-(8-fluoro-2-(((2R,7aS)-2-fluorotetrahydro-1H-pyrrolizin-7a(5H)-yl)methoxy)-4-((1R,5R)-1-((E)-2-fluorovinyl)-3,8-diazabicyclo[3.2.1]octan-3-yl)pyrido[4,3-d]pyrimidin-7-yl)naphthalen-2-ol] | 816 nM | 876 nM |  |  | 
8 | C#Cc1c(F)ccc2cc(O)cc(-c3ncc4c(N5CC6CCC(CN(C)C)(C5)N6)nc(OC[C@@]56CCCN5C[C@H](F)C6)nc4c3F)c12 (stereo partly drawn) [Example 24, 4-(4-(1-((dimethylamino)methyl)-3,8-diazabicyclo[3.2.1]octan-3-yl)-8-fluoro-2-(((2R,7aS)-2-fluorotetrahydro-1H-pyrrolizin-7a(5H)-yl)methoxy)pyrido[4,3-d]pyrimidin-7-yl)-5-ethynyl-6-fluoronaphthalen-2-ol] |  |  | < 50 nM | 50 to 500 nM | 
9 | [2H]C([2H])([2H])OC[C@@]12CC[C@@H](CN(c3nc(OC[C@@]45CCCN4C[C@H](F)C5)nc4c(F)c(-c5cc(O)cc6ccc(F)c(C#C)c56)nc(OCC)c34)C1)N2 [Example 52, 4-(5-ethoxy-8-fluoro-2-(((2R,7aS)-2-fluorotetrahydro-1H-pyrrolizin-7a(5H)-yl)methoxy)-4-((1R,5S)-1-((methoxy-d3)methyl)-3,8-diazabicyclo[3.2.1]octan-3-yl)pyrido[4,3-d]pyrimidin-7-yl)-5-ethynyl-6-fluoronaphthalen-2-ol] |  |  | < 50 nM | 50 to 500 nM | 
10 | [2H]C([2H])([2H])OC[C@]12CC[C@H](CN(c3nc(OC[C@@]45CCCN4C[C@H](F)C5)nc4c(F)c(-c5cc(O)cc6ccc(F)c(C#C)c56)nc(OC)c34)C1)N2 [Example 49, 5-ethynyl-6-fluoro-4-(8-fluoro-2-(((2R,7aS)-2-fluorotetrahydro-1H-pyrrolizin-7a(5H)-yl)methoxy)-5-methoxy-4-((1S,5R)-1-((methoxy-d3)methyl)-3,8-diazabicyclo[3.2.1]octan-3-yl)pyrido[4,3-d]pyrimidin-7-yl)naphthalen-2-ol] | 288 nM | 262 nM |  |  | 
11 | [2H]C([2H])([2H])C12CCC(CN(c3nc(OC[C@@]45CCCN4C[C@H](F)C5)nc4c(F)c(-c5cc(O)cc6ccc(F)c(C#C)c56)nc(C)c34)C1)N2 (stereo partly drawn) [Example 40, 5-ethynyl-6-fluoro-4-(8-fluoro-2-(((2R,7aS)-2-fluorotetrahydro-1H-pyrrolizin-7a(5H)-yl)methoxy)-5-methyl-4-(1-(methyl-d3)-3,8-diazabicyclo[3.2.1]octan-3-yl)pyrido[4,3-d]pyrimidin-7-yl)naphthalen-2-ol] |  |  | < 50 nM | < 50 nM | 
12 | C#Cc1c(F)ccc2cc(O)cc(-c3ncc4c(N5CC6CCC(C#C)(C5)N6)nc(OC[C@@]56CCCN5C[C@H](F)C6)nc4c3F)c12 (stereo partly drawn) [Example 6, 5-ethynyl-4-(4-(1-ethynyl-3,8-diazabicyclo[3.2.1]octan-3-yl)-8-fluoro-2-(((2R,7aS)-2-fluorotetrahydro-1H-pyrrolizin-7a(5H)-yl)methoxy)pyrido[4,3-d]pyrimidin-7-yl)-6-fluoronaphthalen-2-ol] |  |  | < 50 nM | 50 to 500 nM | 
13 | C#Cc1c(F)ccc2cc(O)cc(-c3ncc4c(N5CC6CCC(COC)(C5)N6)nc(OC[C@@]56CCCN5C[C@H](F)C6)nc4c3F)c12 (stereo partly drawn) [Example 1, 5-ethynyl-6-fluoro-4-(8-fluoro-2-(((2R,7aS)-2-fluorotetrahydro-1H-pyrrolizin-7a-yl)methoxy)-4-(1-(methoxymethyl)-3,8-diazabicyclo[3.2.1]octan-3-yl)pyrido[4,3-d]pyrimidin-7-yl)naphthalen-2-ol] |  | 100 nM |  |  | 20 nM
14 | C#Cc1c(F)ccc2cc(O)cc(-c3ncc4c(N5CC6CCC(CSC)(C5)N6)nc(OC[C@@]56CCCN5C[C@H](F)C6)nc4c3F)c12 (stereo partly drawn) [Example 10, 5-ethynyl-6-fluoro-4-(8-fluoro-2-(((2R,7aS)-2-fluorotetrahydro-1H-pyrrolizin-7a(5H)-yl)methoxy)-4-(1-((methylthio)methyl)-3,8-diazabicyclo [3.2.1]octan-3-yl)pyrido[4,3-d]pyrimidin-7-yl)naphthalen-2-ol] |  |  | 50 to 500 nM | > 500 nM | 
